Reference: PubChem BioAssay AID1259407 (Chemical Carcinogenesis Research Information System (CCRIS), 2018)
Activity calls are given as the source filed them. The rule behind the calls is not given here.

Test system: CCRIS mutagenicity, Ames/micronucleus/aberration tests
Assay: CCRIS mutagenicity studies
Settings: Test System: AMES SALMONELLA TYPHIMURIUM

**Q.** `CC(C)CN(CC(C)C)CC(C)C` was tested. Which mutagenic call (Strain/Indicator: TA98, Metabolic Activation: HAMSTER, LIVER, S-9, AROCLOR 1254 (10%), Method: PREINCUBATION) did it give?
**A.** inactive; negative

**Q.** What about the mutagenic call (Strain/Indicator: TA98, Metabolic Activation: NONE, Method: PREINCUBATION) of the same compound?
**A.** inactive; negative

**Q.** And the mutagenic call (Strain/Indicator: TA98, Metabolic Activation: RAT, LIVER, S-9, AROCLOR 1254 (10%), Method: PREINCUBATION)?
**A.** inactive; negative

**Q.** And the mutagenic call (Strain/Indicator: TA100, Metabolic Activation: HAMSTER, LIVER, S-9, AROCLOR 1254 (10%), Method: PREINCUBATION)?
**A.** inactive; negative

**Q.** What about the mutagenic call (Strain/Indicator: TA100, Metabolic Activation: NONE, Method: PREINCUBATION) of the same compound?
**A.** inactive; negative

**Q.** And the mutagenic call (Strain/Indicator: TA100, Metabolic Activation: RAT, LIVER, S-9, AROCLOR 1254 (10%), Method: PREINCUBATION)?
**A.** inactive; negative

**Q.** And the mutagenic call (Strain/Indicator: TA1535, Metabolic Activation: HAMSTER, LIVER, S-9, AROCLOR 1254 (10%), Method: PREINCUBATION)?
**A.** inactive; negative

**Q.** What about the mutagenic call (Strain/Indicator: TA1535, Metabolic Activation: NONE, Method: PREINCUBATION) of the same compound?
**A.** inactive; negative

**Q.** And the mutagenic call (Strain/Indicator: TA1535, Metabolic Activation: RAT, LIVER, S-9, AROCLOR 1254 (10%), Method: PREINCUBATION)?
**A.** inactive; negative

**Q.** And the mutagenic call (Strain/Indicator: TA1537, Metabolic Activation: HAMSTER, LIVER, S-9, AROCLOR 1254 (10%), Method: PREINCUBATION)?
**A.** inactive; negative

**Q.** And the mutagenic call (Strain/Indicator: TA1537, Metabolic Activation: NONE, Method: PREINCUBATION)?
**A.** inactive; negative

**Q.** What about the mutagenic call (Strain/Indicator: TA1537, Metabolic Activation: RAT, LIVER, S-9, AROCLOR 1254 (10%), Method: PREINCUBATION) of the same compound?
**A.** inactive; negative

**Q.** For `[O-][n+]1c2ccccc2c2ccc3cccc4ccc1c2c34`, which mutagenic call (Strain/Indicator: TA98, Metabolic Activation: NONE) is on record?
**A.** inactive; negative

**Q.** And the mutagenic call (Strain/Indicator: TA98, Metabolic Activation: S-9)?
**A.** active; positive

**Q.** And the mutagenic call (Strain/Indicator: TA100, Metabolic Activation: NONE)?
**A.** inactive; negative

**Q.** And the mutagenic call (Strain/Indicator: TA100, Metabolic Activation: S-9)?
**A.** active; positive

**Q.** How did the mutagenic call (Strain/Indicator: TA1537, Metabolic Activation: NONE, Method: STANDARD PLATE) turn out when `O=C(O)c1ccc(O)c2c1C(=O)c1cc(O)cc(O)c1C2=O` was run?
**A.** inactive; negative

**Q.** What about the mutagenic call (Strain/Indicator: TA1537, Metabolic Activation: RAT, LIVER, S-9, PCB, Method: STANDARD PLATE) of the same compound?
**A.** inactive; negative

**Q.** `OCNc1ncnc2c1ncn2[C@@H]1O[C@H](CO)[C@@H](O)[C@H]1O` was tested. Which mutagenic call (Strain/Indicator: TA100(TN5-1,8-DNP1011), Metabolic Activation: NONE, Method: STANDARD PLATE) did it give?
**A.** inactive; negative

**Q.** What about the mutagenic call (Strain/Indicator: TA100(TN5-1,8-DNP1012), Metabolic Activation: NONE, Method: STANDARD PLATE) of the same compound?
**A.** active; positive

**Q.** And the mutagenic call (Strain/Indicator: TA100, Metabolic Activation: NONE, Method: STANDARD PLATE)?
**A.** inactive; negative
